Consider 72 compounds from patent publication US11440907B1 (Merck Patent GmbH, priority 2018, dated 2022).

The subject of one assay is XBP1(u)-luciferase splicing reporter in HepG2 hepatoma cells. Kind of assay: HepG2 XBP1 reporter assay (XBP1(u)-Luc). The assay is classed as cell-based. As to conditions: Homo sapiens, 6 h, six hours after addition of compound. From the text: HepG2 XBP1 Reporter Assay
HepG2 hepatoma cells were transduced with a retrovirus encoding the cDNA for unspliced (u) XBP1, which contains a non-processed intron, fused to the cDNA for firefly luciferase. Upon induction of ER stress, the non-processed intron of XBP1(u) is spliced out by active IRE1alpha endonuclease. The resulting spliced (s) XBP1 is now in frame with luciferase which causes the production of active luciferase protein, resulting in bioluminescence
HepG2 XBP1(u)-Luc cells were plated […] Cultured cells with a stably transfected reporter construct were plated at approximately 30,000 cells per well into 96 well multi-well plates for twenty four hours. The testing compounds were then added to the wells in 3-fold serial dilutions using a twenty seven micromolar top concentration. A series of control wells for each cell type received only compound solvent. Six hours after the addition of compound, reporter activity for luciferase was assayed, by addition of the SteadyGlo luminescence reagent (Promega). The reporter luminescence activity was measured using Pherastar plate reader (BMG Labtech). Readings was normalized to DMSO only treated cells, and normalized activities were then used in the IC50 calculations. The HepG2 XBP1 reporter assay data are summarized in Tables 3-5: A<0.6 μM; 0.6 μM≤B<2.0 μM; 2.0 μM≤C<5.0 μM; D≥5.0 μM.
Regarding `Cc1cc(N2CCCOC[C@@H]2c2cc3c(cc2Cl)OCC2(CC2)CO3)nc(N)n1` [D-16], the IC50 fell in the range of 0.6 to 2 µM.

`COc1cc(C2COCCCN2c2cc(C)nc(N)n2)c(Cl)cc1OCC(=O)NC(C)(C)C` [D-32] had an IC50 of 0.6 to 2 µM.

`CCOc1cc(C2COCCCN2c2cc(C)nc(N)n2)c(Cl)cc1OCC(=O)OC` [D-44] showed an IC50 of 0.6 to 2 µM.

In turn, `CCOc1cc(C2COCCCN2c2cc(C)nc(N)n2)c(Cl)cc1OCC(=O)NC(C)(C)C` [D-47] displayed an IC50 of 0.6 to 2 µM.

The compound `C=CCOc1cc(Cl)c(C2COCCCN2c2cc(C)nc(N)n2)cc1OCC` [D-48] had an IC50 of 0.6 to 2 µM.

For the compound `COC(=O)Cc1cc(C2COCCCN2c2cc(C)nc(N)n2)c(Cl)cc1C#N` [D-53], the IC50 was 2 to 5 µM.

`Cc1cc(N2CCCOC[C@@H]2c2ccc(NC(=O)C3(F)CCOC3)cc2Cl)nc(N)n1` (stereo partly drawn) [D-62] came in with a half-inhibitory concentration (IC50) of 2 to 5 µM.

Take `Cc1cc(N2CCCOC[C@@H]2c2ccc(C3CCNCC3)cc2Cl)nc(N)n1` [D-66]: the IC50 lay in the range of 2 to 5 µM.

As to `Cc1cc(N2CCCOCC2c2ncc(CS(C)(=O)=O)cc2OC(F)F)nc(N)n1` [D-67], the IC50 lay in the range of 0.6 to 2 µM.

Compound `Cc1cc(N2CCCOC[C@@H]2c2ccc(C3CCN(C4COC4)CC3)cc2Cl)nc(N)n1` [D-69] gave an IC50 of 0.6 to 2 µM.

As for `Cc1cc(N2CCCOCC2c2ccc(C3CCN(C4COC4)CC3)cc2Cl)nc(N)n1` [D-70], the IC50 lay within 2 to 5 µM.

Compound `CCOc1cc(C2COCCCN2c2cc(C)nc(N)n2)c(Cl)cc1OCC(N)=O` [D-72] registered an IC50 of 0.6 to 2 µM.

Consider `Cc1cc(N2CCCOCC2c2cc(CN)c(Cl)cc2C)nc(N)n1` [D-73], for which the IC50 lay in the range of 0.6 to 2 µM.

In turn, `Cc1cc(N2CCCOCC2c2cc(O)c(OC(F)(F)F)cc2Cl)nc(N)n1` [D-74] had a half-inhibitory concentration (IC50) of under 0.6 µM.

In turn, `Cc1cc(N2CCCOC[C@@H]2c2cc(CN)c(C)cc2Cl)nc(N)n1` [D-75] had an IC50 of under 0.6 µM.

Consider `Cc1cc(N2CCCOC[C@H]2c2cnc(CS(C)(=O)=O)cc2Cl)nc(N)n1` [D-76], for which the IC50 is under 0.6 µM.

As for `COC(=O)c1cc(C2COCCCN2c2cc(C)nc(N)n2)c(Cl)cc1C#N` [D-77], the IC50 fell in the range of 0.6 to 2 µM.

Take `Cc1cc(N2CCCOCC2c2cc(O)c(S(C)(=O)=O)cc2Cl)nc(N)n1` [D-79]: the 50% inhibitory concentration (IC50) is 0.6 to 2 µM.

In the case of `Cc1cc(N2CCCOC[C@@H]2c2ccc(N3CCN(C(=O)OC(C)(C)C)CC3)cc2Cl)nc(N)n1` [D-82], the IC50 was in the range of 0.6 to 2 µM.

In turn, `Cc1cc(N2CCCOC[C@@H]2c2ccc(NCC3CCOC3)cc2Cl)nc(N)n1` (stereo partly drawn) [D-83] displayed an IC50 of under 0.6 µM.

In turn, `Cc1cc(N2CCCOC[C@@H]2c2ccc(N3C[C@@H](C)O[C@@H](C)C3)cc2Cl)nc(N)n1` [D-84] came in with an IC50 of 0.6 to 2 µM.

Consider `Cc1cc(N2CCCOCC2c2cnc(CS(C)(=O)=O)cc2OC(F)F)nc(N)n1` [D-85], for which the IC50 is 0.6 to 2 µM.

The compound `CCc1cc(N2CCCOCC2c2cc(O)c(S(C)(=O)=O)cc2Cl)nc(N)n1` [D-87] came in with an IC50 of at least 5 µM.

As to `Cc1cc(N2CCCOC[C@H]2c2ccc([C@@H]3CCCN3)cc2Cl)nc(N)n1` [D-88], the IC50 was in the range of 2 to 5 µM.

As for `Cc1cc(N2CCCOC[C@H]2c2ccc([C@H]3CCCN3)cc2Cl)nc(N)n1` [D-89], the half-maximal inhibitory concentration (IC50) lay in the range of 2 to 5 µM.

On to `Cc1cc(N2CCCOC[C@@H]2c2ccc([C@H]3CCCN3)cc2Cl)nc(N)n1` [D-90], for which the IC50 was under 0.6 µM.

Take `Cc1cc(N2CCCOC[C@@H]2c2ccc([C@@H]3CCCN3)cc2Cl)nc(N)n1` [D-91]: the IC50 is under 0.6 µM.

Turning to `Cc1cc(N2CCCOCC2c2ccc(NC(=O)CC(C)C)cc2Cl)nc(N)n1` [D-92], the IC50 fell in the range of 0.6 to 2 µM.

`Cc1cc(N2CCCOC[C@@H]2c2ccc(CS(C)(=O)=O)nc2OC(F)F)nc(N)n1` [D-93]: the IC50 is under 0.6 µM.

Compound `Cc1cc(N2CCCOCC2c2ccc(NC(=O)CC3CC3)cc2Cl)nc(N)n1` [D-94] yielded an IC50 of 2 to 5 µM.

Consider `CCCC(=O)Nc1ccc(C2COCCCN2c2cc(C)nc(N)n2)c(Cl)c1` [D-95], for which the IC50 lay in the range of 0.6 to 2 µM.

`Cc1cc(N2CCCOCC2c2ccc(NC(=O)CC(C)(C)C)cc2Cl)nc(N)n1` [D-96] yielded an IC50 of 0.6 to 2 µM.

`CCC(=O)Nc1cc(Cl)c(C2COCCCN2c2cc(C)nc(N)n2)cc1O` [D-97] displayed a half-maximal inhibitory concentration (IC50) of under 0.6 µM.

Turning to `CCc1cc(N2CCCOCC2c2cc(O)c(CS(C)(=O)=O)cc2Cl)nc(N)n1` [D-98], the IC50 was under 0.6 µM.

In the case of `Cc1cc(N2CCCOC[C@@H]2c2cc(CN)c(Cl)cc2C)nc(N)n1` [D-99], the IC50 is under 0.6 µM.

`Cc1cc(N2CCCOCC2c2cc(O)c(NC(=O)CC(C)(C)O)cc2Cl)nc(N)n1` [D-100] yielded an IC50 of 0.6 to 2 µM.

`CCOc1cc([C@H]2COCCCN2c2cc(C)nc(N)n2)c(Cl)cc1OCC(N)=O` [D-101] returned an IC50 of under 0.6 µM.

`Cc1cc(N2CCCOCC2c2ccc(S(N)(=O)=O)cc2)nc(N)n1` [D-102] yielded an IC50 of at least 5 µM.

`Cc1cc(N2CCCOCC2c2sc(Cl)nc2Cl)nc(N)n1` [D-103] returned an IC50 of 2 to 5 µM.

On to `C#CCOc1cc(Cl)c([C@H]2COCCCN2c2cc(C)nc(N)n2)cc1OC` [D-105], for which the IC50 is under 0.6 µM.

`CCc1ccccc1[C@H]1COCCCN1c1cc(C)nc(N)n1` [D-106] registered an IC50 of under 0.6 µM.

Turning to `Cc1cc(N2CCCOCC2c2ccc(Cl)cc2C#N)nc(N)n1` [D-107], the IC50 was in the range of 0.6 to 2 µM.

As for `Cc1cc(N2CCCOCC2c2ccc3[nH]ncc3c2)nc(N)n1` [D-108], the IC50 is 2 to 5 µM.

Take `CC(=O)Nc1cc(Cl)c(C2COCCCN2c2cc(C)nc(N)n2)cc1O` [D-109]: the IC50 was under 0.6 µM.

As for `Cc1cc(N2CCCOCC2c2cc(O)c(NC(=O)C3CC3)cc2Cl)nc(N)n1` [D-112], the IC50 is under 0.6 µM.

For the compound `C#Cc1ccccc1C1COCCCN1c1cc(C)nc(N)n1` [D-113], the IC50 fell in the range of 0.6 to 2 µM.

`Cc1cc(N2CCCOC[C@H]2c2cc3c(cc2Cl)NC[C@@](C)(C(=O)O)O3)nc(N)n1` [D-114]: the IC50 is at least 5 µM.

For `Cc1cc(N2CCCOC[C@@H]2c2cc(O)c(C(N)=O)cc2Cl)nc(N)n1` [D-115], the IC50 was 0.6 to 2 µM.

As for `CNC(=O)c1cc(Cl)c(C2COCCCN2c2cc(C)nc(N)n2)cc1O` [D-118], the IC50 fell in the range of 0.6 to 2 µM.

Turning to `Cc1cc(N2CCCOC[C@@H]2c2cc3c(cc2Cl)NC[C@@](C)(C(N)=O)O3)nc(N)n1` [D-120], the IC50 was under 0.6 µM.

Compound `Cc1cc(N2CCCOC[C@H]2c2cc(O)c(C(=O)NC(C)C)cc2Cl)nc(N)n1` [D-121] yielded an IC50 of at least 5 µM.

The assay is the same for the next values; noted with them: Homo sapiens, 6 hours after compound addition, Table 4.
As for `Cc1cc(N2CCCOCC2c2ccc(OCS(C)(=O)=O)cc2Cl)nc(N)n1` (stereo not drawn) [C-120, 4-[3-(2-Chloro-4-methanesulfonylmethoxy-phenyl)-[1,4]oxazepan-4-yl]-6-methyl-pyrimidin-2-ylamine], the IC50 was under 0.6 µM.

As for `CSCOc1ccc([C@H]2COCCCN2c2cc(C)nc(N)n2)c(Cl)c1` [C-121, 4-[(S)-3-(2-Chloro-4-methylsulfanylmethoxy-phenyl)-[1,4]oxazepan-4-yl]-6-methyl-pyrimidin-2-ylamine], the IC50 is at least 5 µM.

Regarding `CSCOc1ccc([C@@H]2COCCCN2c2cc(C)nc(N)n2)c(Cl)c1` [C-122, 4-[(R)-3-(2-Chloro-4-methylsulfanylmethoxy-phenyl)-[1,4]oxazepan-4-yl]-6-methyl-pyrimidin-2-ylamine], the IC50 was under 0.6 µM.

The compound `CC1=C(F)CN(c2ccc([C@H]3COCCCN3c3cc(C)nc(N)n3)c(Cl)c2)CC1` [C-123] gave an IC50 of 0.6 to 2 µM.

For `Cc1cc(N2CC(O)COC[C@@H]2c2ccc(N3CCC(C)(O)CC3)cc2Cl)nc(N)n1` (stereo partly drawn) [C-124], the IC50 is under 0.6 µM.

Regarding `Cc1cc(N2CCCOC[C@@H]2c2cc(F)c(N3CCC(C)(O)CC3)cc2Cl)nc(N)n1` [C-125], the IC50 lay in the range of 0.6 to 2 µM.

Regarding `Cc1cc(N2CCCOC[C@@H]2c2ccc(N3CCC(C)(O)CC3)c(F)c2Cl)nc(N)n1` [C-126], the IC50 lay within 0.6 to 2 µM.

`Cc1cc(N2CCCOC=C2c2c(O)cc(N3CCC(C)(O)CC3)cc2Cl)nc(N)n1` [C-127] had an IC50 of 2 to 5 µM.

`Cc1cc(N2CCCOCC2c2cc(C)c(O)cc2Cl)nc(N)n1` (stereo not drawn) [C-128] returned an IC50 of 0.6 to 2 µM.

In the case of `Cc1cc(N2CCCOCC2c2cc3c(cc2Cl)CCCN3C)nc(N)n1` (stereo not drawn) [C-129], the IC50 is at least 5 µM.

Compound `Cc1cc(N2CCCOCC2c2cc(OC(F)(F)F)c(N)cc2Cl)nc(N)n1` (stereo not drawn) [C-130] had an IC50 of 0.6 to 2 µM.

`Cc1cc(N2CCCOC[C@H]2c2cc3c(cc2Cl)NC(=O)CO3)nc(N)n1` [C-131]: the IC50 fell in the range of 0.6 to 2 µM.

As to `Cc1cc(N2CCCOC[C@@H]2c2cc3c(cc2Cl)CCN3)nc(N)n1` [C-134], the IC50 was under 0.6 µM.

`Cc1cc(N2CC3(CC3)COC[C@@H]2c2ccc(CS(C)(=O)=O)cc2Cl)nc(N)n1` [C-136] gave an IC50 of at least 5 µM.

`Cc1cc(N2C[C@H](C)COC[C@H]2c2ccc(CS(C)(=O)=O)cc2Cl)nc(N)n1` [C-139]: the IC50 is at least 5 µM.

Regarding `Cc1cc(N2CCCOCC2c2cc(N)c(OC(F)(F)F)cc2Cl)nc(N)n1` (stereo not drawn) [C-141], the IC50 was under 0.6 µM.

In turn, `CC(=O)Nc1cc(Cl)c(N2CCCOCC2c2cc(C)nc(N)n2)cc1C` (stereo not drawn) [C-143] had an IC50 of 0.6 to 2 µM.

Regarding `COc1cc(Cl)c([C@H]2COCCCN2c2cc(C)nc(N)n2)cc1OC(C)C` [C-144], the IC50 lay within 0.6 to 2 µM.

In turn, `CCNc1cc(Cl)c([C@H]2COCCCN2c2cc(C)nc(N)n2)cc1C` [C-146] showed an IC50 of under 0.6 µM.

As for `CCOC(=O)[C@H](C)Oc1cc(Cl)c([C@@H]2COCCCN2c2cc(C)nc(N)n2)cc1OC` [C-149], the IC50 is 2 to 5 µM.

In the case of `CCOC(=O)[C@H](C)Oc1cc(Cl)c([C@H]2COCCCN2c2cc(C)nc(N)n2)cc1OC` [C-150], the IC50 lay in the range of 0.6 to 2 µM.
